Data on nine molecules can be found in patent publication EP4813463A2, “TYK2 INHIBITORS AND COMPOSITIONS AND METHODS THEREOF” (Lynk Pharmaceuticals Co. Ltd., priority 2023, dated 2024).

Converted amounts (≈) assume the structure as drawn. Read-outs that look alike come from different tables or passages of the source.

For data set [1], the target named is T1, JAK1-JH2 domain (Homo sapiens, UniProt P23458).
T1 construct: JAK1-JH2 domain or TYK2-JH2 domain enzyme in assay buffer
The data set can be described thus: Binding activity test for JH2 domain of JAK1 (Tb-antibody/tracer FRET). The following applies: JH2 domain enzyme; 60 min at 25°C, then 4°C overnight; read-out: JAK1 JH2 Binding IC50. Summed up:
(§1)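 Competitive TR-FRET binding: compounds dispensed as an 11-point 3-fold dilution series, then Tb-labelled antibody and tracer added to the JH2 protein system. Incubated at 25°C, then overnight at 4°C; FRET signal read on Envision and IC50 (nM) derived.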

Data set [2] has as its system Ba/F3-FL-TYK2-P760L cells. As to the kind of experiment: Anti-proliferative assay in engineered Ba/F3 cells (Cell-Titer Glo, 72 h). The format is cell-based. The following applies: 72 h compound treatment, concentration that causes 50% growth inhibition, read-out: Baf3-FL-T2P760L. A digest of the protocol: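 Ba/F3 cells carrying Tel-dimerization/JAK kinase fusion, IL-3-independent, in RPMI-1640 + 10% FBS; 9-point 3-fold dilutions from 20 µM (0.1% DMSO) added after 24 h, 72 h at 37 °C. Viability by Cell-Titer Glo ATP luminescence; % inhibition versus DMSO cells, blank-corrected, giving IC50.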

Data set [3] has as its target T2, TYK2-JH2 domain (Homo sapiens, UniProt P29597).
T2 construct: JAK1-JH2 domain or TYK2-JH2 domain enzyme in assay buffer
As to the kind of experiment: Binding activity test for JH2 domain of TYK2 (Tb-antibody/tracer FRET). The following applies: for IC50: JH2 domain enzyme, 60 min at 25°C, then 4°C overnight, read-out: TYK2 JH2 Binding IC50; for JAK1/TYK2 selectivity: ratio of JAK1 JH2 to TYK2 JH2 binding IC50. A digest of the protocol:
as §1

Data set [4] deals with pSTAT1. The data set can be described thus: Phosphorylation inhibition of STAT in human whole blood (IFN-alpha stimulated, flow cytometry). The format is cell-based. The conditions noted are these: T-cell, 20 min, IFN-alpha stimulation 20 mins, CD3 T cells, read-out: pSTAT1 inhibition in hWB (IC50). As for the experimental part: The inhibitory potential of test articles in human whole blood assay was evaluated by the method of flow cytometry.
IFN-alpha will activate JAK1 and TYK2 kinase in T cells by binding to IFN receptors, and then lead to phosphorylation of STAT1 and STAT2. The phosphorylated STAT1 enter nuclear and promote transcription and expression of IFN-gamma. To evaluate the efficacy of TYK2i in T cells, freshly collected human whole blood will be stimulated with certain unit of human IFN-alpha (Universal Type I IFN(1MU), R&D, 11200-2) for 20 mins in incubator. After stimulation, fix cells with Phosflow™ Fix Buffer I (BD, 557870), and then collect fixed cells by centrifugation (500 g, 8min). Wash cells once with pre-cooled PBS, and then permeabilize cells with cold Perm Buffer III buffer (BD, 558050) for 45 mins on ice. Collect cells by centrifugation (600 g, 8min) and washed twice with cold PBS. Stain cells with anti-human CD3(FITC Mouse Anti-Human CD3, BD, 555332) and anti-pSTAT1_Y701(Alexa Fluor 647 Mouse Anti-Stat1 (pY701), BD, 612597) antibodies. Detect pSTAT1 by flow cytometry (CytoFlex S) and analyze data with FlowJo and GraphPad Prism 8 software. IC50 values of test articles were determined using 4- parameter logistic equation.

A short description of data set [5]: Kinetic solubility. In kind it is physicochemical. The following applies: phosphate buffer, pH 7.4, aqueous buffer, kinetic from dmso stock, 100 mM pH 7.4 phosphate buffer, 1% DMSO, room temperature, read-out: Kinetics Solubility_PBS7.4. The procedure: Aliquots of 8 µL of reference and test compound stock solutions (10 mM/5 mM) are added into 792 µL of 100 mM pH 7.4 phosphate buffer. The final DMSO concentration is 1%. Sample tubes are shaken for 2 hours at 1000 rpm at room temperature. Samples are centrifuged at 12000 rpm for 10 min to precipitate un-dissolved particles. And transfer the supernatants to a new tube or plate. Add 5 µL of samples (no diluted, 10 times diluted, and 100 times diluted) and standard curve samples to 95 µL of ACN containing IS for LC-MS/MS analysis. Kinetic Solubilities Values of Exemplary Compounds

Data set [6] is described as follows: Microsomal metabolic stability assay. The conditions noted are these: human, liver microsomes, pH 7.4, 0.5 mg/mL microsomal protein, 1 µM test article, 2 mM NADPH; for microsomal CLint at 1 µM: read-out: Human LM Clint; for half-life at 1 µM: read-out: Human LM T1/2. In kind it is in vitro ADME. A digest of the protocol:
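Test or control compound (1 µM) incubated with microsomes (0.5 mg/mL protein) in 100 mM potassium phosphate pH 7.4, 1.0 mM EDTA at 37°C, started with NADPH regenerating system (2 mM NADPH). Sampled at 0, 5, 15, 30, 45 min, acetonitrile-quenched, LC/MS/MS. T1/2 from ln %remaining vs time slope; CLint = 0.693/T1/2 per mg protein/mL.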
(In general: Liver microsomes are vesicles of endoplasmic reticulum, rich in cytochrome P450 enzymes.)

T2 sequence (P29597 589-875 limits assumed): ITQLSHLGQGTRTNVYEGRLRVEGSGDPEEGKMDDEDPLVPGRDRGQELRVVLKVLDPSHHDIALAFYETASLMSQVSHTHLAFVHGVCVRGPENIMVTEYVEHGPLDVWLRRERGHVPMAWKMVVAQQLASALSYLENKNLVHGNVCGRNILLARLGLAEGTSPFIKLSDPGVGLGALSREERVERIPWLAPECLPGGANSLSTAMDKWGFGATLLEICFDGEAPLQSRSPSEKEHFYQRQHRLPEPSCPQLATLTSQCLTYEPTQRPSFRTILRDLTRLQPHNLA
T1 sequence (P23458 583-855 limits assumed): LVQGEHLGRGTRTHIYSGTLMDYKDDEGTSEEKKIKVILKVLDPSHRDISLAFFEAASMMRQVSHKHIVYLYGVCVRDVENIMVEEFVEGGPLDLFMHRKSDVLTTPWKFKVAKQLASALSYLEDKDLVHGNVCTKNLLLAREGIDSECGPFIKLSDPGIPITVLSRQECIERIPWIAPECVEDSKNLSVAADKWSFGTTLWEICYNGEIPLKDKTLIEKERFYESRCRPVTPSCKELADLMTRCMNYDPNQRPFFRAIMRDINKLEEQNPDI

For `[2H]C([2H])([2H])NC(=O)c1cnc(NC(=O)C2CC23CC3)cc1Nc1cnn2ccc([C@H](O)C(F)(F)F)c(OC)c12` (single isomer, unassigned) [Example 32A, 4-((4-Methoxy-5-((S)-2,2,2-trifluoro-1-hydroxyethyl)pyrazolo[1,5-a]pyridin-3-yl)amino)-N-(methyl-d3)-6-((S*)-spiro[2.2]pentane-1-carboxamido)nicotinamide], the IC50 was determined as 18.6 nM in data set [1], 33 nM in data set [2], 0.099 nM in data set [3] and 99.4 nM in data set [4]. The JAK1/TYK2 selectivity in data set [3] is recorded as 187.6. Further, the solubility kinetic at 2 h in data set [5] amounted to 25.5 µM (≈ 12.9 µg/mL).

Regarding `[2H]C([2H])([2H])NC(=O)c1cnc(NC(=O)C2CC2)cc1Nc1cn(C)c2ccc(CC)c(OC)c12` [Example 2, 6-(Cyclopropanecarboxamido)-4-((5-ethyl-4-methoxy-1-methyl-1H-indol-3-yl)amino)-N-(methyl-d3)nicotinamide], the IC50 in data set [1] came out at 5.24 nM; in data set [2] (Mus musculus, BaF3, 72 h) it was 17 nM; in data set [3] it was 0.333 nM; in data set [4], 141 nM. Besides, the JAK1/TYK2 selectivity in data set [3] amounted to 15.7. Further, in data set [5], the solubility kinetic at 2 h came out at 15.3 µM (≈ 6.5 µg/mL).

For `[2H]C([2H])([2H])NC(=O)c1cnc(NC(=O)C2CC2)cc1Nc1cnn2ccc(Cl)c(OC)c12` [Example 3, 4-((5-Chloro-4-methoxypyrazolo[1,5-a]pyridin-3-yl)amino)-6-(cyclopropanecarboxamido)-N-(methyl-d3)nicotinamide], the IC50 stood at 13.4 nM in data set [1]; 43.6 nM in data set [2] (Mus musculus, BaF3, 72 h); 0.223 nM in data set [3]; 177 nM in data set [4]. Besides, the JAK1/TYK2 selectivity in data set [3] was found to be 59.9. Also, in data set [5], the solubility kinetic at 2 h worked out at 15.1 µM (≈ 6.31 µg/mL).

`[2H]C([2H])([2H])NC(=O)c1cnc(NC(=O)C2CC2)cc1Nc1cnn2ccc(C)c(OC)c12` [Example 5, 6-(Cyclopropanecarboxamido)-4-((4-methoxy-5-methylpyrazolo[1,5-a]pyridin-3-yl)amino)-N-(methyl-d3)nicotinamide]: the IC50 in data set [1] turned out to be 6.62 nM; in data set [2] (Mus musculus, BaF3, 72 h), 32 nM; in data set [3], 0.137 nM; in data set [4], 139 nM. Besides, the JAK1/TYK2 selectivity in data set [3] was 48.3. The solubility kinetic at 2 h in data set [5] came to 57.4 µM (≈ 22.8 µg/mL).

Turning to `[2H]C([2H])([2H])NC(=O)c1cnc(NC(=O)C2CC2)cc1Nc1cnn2ccc(C(O)C(F)(F)F)c(OC)c12` (stereo not shown) [Example 7, 6-(Cyclopropanecarboxamido)-4-((4-methoxy-5-(2,2,2-trifluoro-1-hydroxyethyl)pyrazolo[1,5-a]pyridin-3-yl)amino)-N-(methyl-d3)nicotinamide], the IC50 in data set [1] was determined as 11 nM; in data set [2] (Mus musculus, BaF3, 72 h) it was 9.32 nM; in data set [3], 0.147 nM; in data set [4] it was 67.4 nM. Moreover, in data set [3], the JAK1/TYK2 selectivity was 74.9. Further, in data set [5], the solubility kinetic at 2 h worked out at 42.9 µM (≈ 20.7 µg/mL).

Turning to `[2H]C([2H])([2H])NC(=O)c1cnc(NC(=O)C2CC2)cc1Nc1cnn2ccc(CC(F)(F)F)c(OC)c12` [Example 8, 6-(Cyclopropanecarboxamido)-4-((4-methoxy-5-(2,2,2-trifluoroethyl)pyrazolo[1,5-a]pyridin-3-yl)amino)-N-(methyl-d3)nicotinamide], the IC50 in data set [1] stood at 3.39 nM; in data set [2] (Mus musculus, BaF3, 72 h) it was 31.3 nM; in data set [3], 0.106 nM; in data set [4], 75.5 nM. Also, the JAK1/TYK2 selectivity in data set [3] was determined as 32.0. The solubility kinetic at 2 h in data set [5] was 18.6 µM (≈ 8.63 µg/mL).

`[2H]C([2H])([2H])NC(=O)c1cnc(Nc2ccc(F)cn2)cc1Nc1cnn2ccc([C@H](O)C(F)(F)F)c(OC)c12` [Example 24, (S)-6-((5-fluoropyridin-2-yl)amino)-4-((4-methoxy-5-(2,2,2-trifluoro-1-hydroxyethyl)pyrazolo[1,5-a]pyridin-3-yl)amino)-N-(methyl-d3)nicotinamide]: the IC50 is 18.6 nM in data set [1]; 3.87 nM in data set [2] (Mus musculus, BaF3, 72 h); 0.066 nM in data set [3]; 34.6 nM in data set [4]. Moreover, in data set [3], the JAK1/TYK2 selectivity is 281.8. In addition, the microsomal CLint at 1 µM in data set [6] is 24.6 µL/min/mg. The half-life at 1 µM in data set [6] is 0.937 h. In addition, in data set [5], the solubility kinetic at 2 h worked out at 10.4 µM (≈ 5.27 µg/mL).

Take `[2H]C([2H])([2H])NC(=O)c1cnc(NC(=O)C2CC2)cc1Nc1nn(C)c2ccc([C@H](OC)C(F)(F)F)c(OC)c12` [Example 46A, (S)-6-(cyclopropanecarboxamido)-4-((4-methoxy-1-methyl-5-(2,2,2-trifluoro-1-methoxyethyl)-1H-indazol-3-yl)amino)-N-(methyl-d3)nicotinamide]: the IC50 in data set [1] came out at 3.01 nM; in data set [2] (Mus musculus, BaF3, 72 h), 0.31 nM; in data set [3], 0.074 nM; in data set [4], 33 nM. Also, in data set [3], the JAK1/TYK2 selectivity worked out at 40.64. In addition, the solubility kinetic at 2 h in data set [5] came out at 8.16 µM (≈ 4.16 µg/mL).

As for `[2H]C([2H])([2H])NC(=O)c1cnc(NC(=O)C2CC2)cc1Nc1nn(C)c2ccc(C(O)C(F)(F)F)c(OC)c12` (stereo not shown) [Example 49, 6-(Cyclopropanecarboxamido)-4-((4-methoxy-1-methyl-5-(2,2,2-tritluoro-1-hydroxyethyl)-1H-indazol-3-yl)amino)-N-(methyl-d3)nicotinamide], the IC50 in data set [1] amounted to 4.1 nM; in data set [2] (Mus musculus, BaF3, 72 h), 0.729 nM; in data set [3], 0.136 nM; in data set [4], 27.9 nM. Further, in data set [3], the JAK1/TYK2 selectivity was 30.13. The microsomal CLint at 1 µM in data set [6] was determined as 15.7 µL/min/mg. Further, the half-life at 1 µM in data set [6] was found to be 1.47 h. Further, in data set [5], the solubility kinetic at 2 h worked out at 83 µM (≈ 41.1 µg/mL).
